# Data as given in patent US7781580B2, “Stilbene derivatives as new cancer therapeutic agents” (Virginia Commonwealth University, priority 2007, dated 2010).
# Key:
# UCI101 cells [1] = test: phospho-histone 3B mitotic marker staining; type: cell-based
# Procedure: (a) In vitro sensitivity of UCI101 cells toward three potential stilbene prodrugs, 5a-c, was tested in 96-well plates using Alamar Blue™ assays to determine cell growth inhibition. […] (b) 5b induces cell cycle change and apoptosis in UCI101 cells. Cells were incubated with 5b at 1, 3, 10 μM for 16 hours followed by PI staining and flow cytometry analysis. A subG0/1 population, representing apoptotic cells, appeared along with a decrease of the G1/G2 ratio after cells were treated with 3 μM 5b. Higher concentration (10 μM) of 5b completely killed cells, as was the case with stilbene 4a at […]. (c) Cells treated with stilbene 4a and 5b were stained with phospho-histone 3B, a mitotic marker. The positive signals of phospho-histone 3B were shown in green and nuclei were stained with DAPI in blue. […] (d) In vivo efficacy of 5b compared with stilbene 4a. Nude mice were injected with UCI101 ovarian cancer cells and treated with 7 doses of 5b,c or stilbene 4a every 2-3 days. Tumor volume was calculated and plotted against days.
# The in vitro efficacy of these three compounds was tested in UCI101 cells in 96-well plate format and stained with Alamar blue™, The growth suppression was calculated as was done similarly to other test compounds. […] A dose response was then performed with various concentrations of 5b in vitro. […]
# UCI101 cells [2] = test: immunofluorescent staining of tubulin, UCI101; type: cell-based; details: CA4 10 nM, stilbene 4a 100 nM, 5b 3 μM; 16 hours
# Description: Nuclei were stained with DAPI.
# [3] = system: c-kit positive marrow progenitor cells; test: bone marrow c-kit-positive progenitor cells: cell cycle and colony forming assay; type: cell-based
# Procedure: FIG. 16. (a) Effect of stilbenes in normal bone marrow progenitor cells. c-kit-positive bone marrow mononuclear cells were isolated for incubation with stilbenes 4a or 4c at 0.1 or 0.5 […] for 16 hours. Cells were harvested for fixation and PI staining. Cell cycle analysis and quantification of the subG0/1 population were analyzed by FACScan flow cytometry. The percentages of the apoptotic population were indicated. Shown are the representatives of two independent experiments. (b) Effect of stilbenes in HL60 cells as positive control. HL60 cells were treated with stilbenes 4a or 4c in the same medium as the positive control. (c) Colony forming assay of the stilbene-treated c-kit-positive cells. A fraction of the cells in (a) were diluted and plated on methylcellulose medium at various densities. Cells were incubated for 14 days and the grossly visible colonies were counted. […] Isolated bone marrow c-kit-positive progenitor cells were incubated with DMSO or stilbenes 4a or 4c at 0.1 or 0.5 μM for 16 hours and injected into tail veins of CD45 congenic mice lethally irradiated with 1200 cGy. Mice were monitored for survival and lineage-specific donor engraftment by flow cytometry analysis of peripheral blood. The percentage of donor cells in T, B, and granulocytic series of the recipients were studied at 7 and 14 weeks after transplantation. Stilbene treated c-Kit progenitor cells had the same percentage as the DMSO treated control in all series.
# Mouse bone marrow was harvested from femur and tibia of […], subjected to red blood cell lysis, and labeled with anti-c-kit (3C11; CALTAG Laboratories, Burlingame, Calif.) and streptavidin-conjugated microbeads for MACS separation (Miltenyi Biotech, Auburn, Calif.). The c-kit positive marrow progenitor cells were incubated in Iscove's Modified Eagle's Media supplemented with 30% fetal bovine serum, erythropoietin, stem cell factor and interleukin-3 with or without stilbenes 4a or 4c. The ability of long-term proliferation of the c-kit-positive cells was evaluated with colony forming assay. Cells were first treated with DMSO, stilbenes 4a or 4c for 5 h and a fraction of the cells (4000 cells) were plated in the same enriched culture media with methylcellulose for colony forming assays. The grossly visible colonies were counted after 14 days of incubation.
# [4] = system: HL60 leukemic cells (xenograft); test: HL60 xenograft model in SCID mice; type: in vivo
# Procedure: FIG. 20. Effect of stilbene 4a in vivo. (a) Induction of cell death in vivo by stilbene 4a. Tumor was harvested at 24 hours after treatment for TUNEL assay. (b) Histological sections of tumor. Tumor harvested at 24 hours after injection of stilbene 4a was analyzed by H & E staining. The area with lighter color is the necrotic region. (c) Tumor growth suppression. SCID mice were injected subcutaneously with 5×10^6 HL60 cells at each flank. Once the diameter of tumor reached 5 mm in diameter in majority of mice, mice were treated with 5 daily injection of stilbene 4a. Tumor volume was calculated by the long and short axis of tumor and plotted against days. Each group contains 5 mice.
# HL60 leukemic cells were injected subcutaneously into ICR-scid mice (Taconic Inc.) on flank. After tumor becomes visible after 12 days, Mice will be treated with stilbene 4a by intravenous injection after dissolved in 10% DMSO in normal saline. For acute effect study, mice were sacrificed 24 hours after injection and tumor and bone marrow were harvested for histological staining and flow cytometry analysis. For long term effect study, stilbenes were injected intravenously from tail veins at 2 or 10 mg/kg for 5 consecutive days. Negative control mice were treated with 10% DMSO in normal saline and positive control mice were treated with Ara-C at 5 mg/kg. Tumor volume was measured twice a week for 4 weeks by the long and short axes of tumor. Volume was calculated by the formula ab^2/2, in which “a” represents the long axis and “b” the short axis of tumor. Mice were euthanized if the calculated tumor reached 10% of the body weight.
# [5] = system: SKOV3 ovarian cancer cells; test: Alamar Blue cell growth inhibition, SKOV3; type: cell-based
# How it was run: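 SKOV3 cells at 50% confluence were treated 48 h with compounds, against 0.1% DMSO vehicle controls. Growth was read by Alamar Blue absorbance at 570 and 600 nm, with % growth inhibition from the manufacturer's extinction-coefficient formula. Each concentration was run in triplicate.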
smiles,measurement,setting,value
"COc1cc(/C=C\c2ccc(OC)c(N)c2)cc(OC)c1 [4a, (Z)-5-[2-(3,5-Dimethoxy-phenyl)-vinyl]-2-methoxy-phenylamine]",phospho-histone 3B positive cells,UCI101 cells [1],dramatic increase in positive cells
same,microtubule pattern,UCI101 cells [2],partial disruption of microtubules
same,toxicity to normal bone marrow progenitor cells versus leukemia cells,[3],much less toxic to normal bone marrow progenitor cells
same,cell cycle of marrow progenitor cells at 0.1 μM,"[3]; 0.1 μM, 16 hours",increased the subG0/1 and G2 population slightly
same,cell cycle of marrow progenitor cells at 0.5 μM,"[3]; 0.5 μM, 16 hours",increased the subG0/1 and G2 population slightly
same,tumor growth suppression,"[4]; 10 mg/kg intravenously daily for 5 days, 12 days after the first injection",50%
same,percentage of apoptosis in tumor (TUNEL),"[4]; 10 mg/kg intravenously, 24 hours",22%
same,percentage of apoptosis in tumor (TUNEL),"[4]; 50 mg/kg intravenously, 24 hours",62%
same,percentage of apoptosis in tumor (TUNEL),"[4]; 100 mg/kg intravenously, 24 hours",58%
same,bone marrow TUNEL (acute marrow toxicity),"[4]; 50 and 100 mg/kg, 24 hours",No increase in TUNEL positive cells was observed
same,IC50,"[5]; Homo sapiens, SK-OV-3",50 to 100 nM
same,effective / active concentration,"[5]; SKOV3, 48 hours",0.1 µM
